According to article PMC8419995, “In vitro and in vivo efficacy of thiacloprid against Echinococcus multilocularis” (Parasites & Vectors, 2021):
Like-named read-outs stand apart in the source and are kept apart here.

What was measured:
[1] = tested on: Human foreskin fibroblasts (HFF); assay: alamarBlue cytotoxicity assay, HFF; type: cell-based; settings: Fibroblast, 120 h, 5 days
Description: An alamarBlue assay was used to assess the toxicity of thiacloprid to confluent and pre-confluent mammalian cells in vitro [29]. Human foreskin fibroblasts (HFF, Procell) and rat hepatoma cells (RH, Procell) were seeded into 96-well cell culture plates in DMEM supplemented with 10% FBS and 1% penicillin–streptomycin at 37 °C and 5% CO2. For detecting the growth inhibitory effects of confluent cells, HFF and RH cells were seeded at 10,000 cells per well and 50,000 cells per well, respectively. After overnight culture, thiacloprid or PZQ was added and diluted in serial concentrations (0, 0.6, 1.2, 2.5, 5, 10, 20, 40, 80 and 160 μM). For detecting growth inhibitory effects on proliferating cells, cells were seeded at 1000 (HFF) and 5000 (RH) cells per well. Thiacloprid was added after 5 h of cell attachment. To measure the viability of the cells after treatment for 5 days, the alamarBlue assay was employed and viability calculated as described previously.

[2] = tested on: E. multilocularis germinal cells; assay: CellTiter-Glo viability assay on germinal cells; type: cell-based, Echinococcus multilocularis; settings: 5 days
Description: To evaluate the activity of thiacloprid against parasitic stem cells, germinal cells from in vitro metacestode vesicles were investigated as described by Spiliotis et al.. Briefly, 20 units of cells were distributed into a black 384-well plate. Different concentrations of thiacloprid or PZQ (0, 0.06, 1.2, 2.5, 5, 10, 20, 40, 80 and 160 μM) were added to the cells. After culture at 37 °C for 5 days under a humid nitrogen atmosphere, 25 μl CellTiter-Glo containing 1% Triton X-100 was added. The plates were incubated at room temperature in the dark for 15 min. After the total destruction of the cellular aggregates, luminescence was measured using an Infinite M200 PRO reader (Tecan), and 0 μM values were set to 100% viability. The IC50 values were calculated using an online IC50 calculator after logit-log transformation. Four independent replicates were conducted.

acetylcholinesterase = assay: Acetylcholinesterase activity (Ellman) in extracts of protoscoleces, metacestodes and germinal cells; type: biochemical, Echinococcus multilocularis; settings: extract; thiacloprid 5 μM, 37 °C 10 min; BW284c51 positive control
Description: The effects of thiacloprid on the acetylcholinesterase activity of E. multilocularis protoscoleces, metacestodes and germinal cells were determined according to a previously described method. The protoscoleces, metacestode and germinal cells were washed twice with PBS and homogenized with an electric homogenizer in precooled PBS. Centrifugation of the homogenates was performed at 100,000×g for 30 min. The protein concentration of the supernatant was determined by the modified Lowry method according to the instructions, and the concentration was adjusted to 2 mg/ml. Thiacloprid (5 μM) was added to the extract and incubated at 37 °C for 10 min. The extract was supplemented with 0.1% DMSO as control. Subsequently, acetylcholinesterase activity was assessed according to Ellman’s procedure using a microplate with 260 µl of 0.1 M PBS buffer pH 8.0, 10 µl of 10 mM dithiobisnitrobenzoic acid solution, 2.5 µl of 75 mM substrate (acetylthiocholine iodide) and 25 µl of the sample treated with thiacloprid. The OD increment was measured at 412 nm using an Infinite M200 PRO reader (Tecan). Each experiment was conducted three times. BW284c51 (CAS number: 402-40-4, Sigma) was used as a positive control.

[3] = tested on: E. multilocularis metacestodes; assay: In vivo treatment of mice experimentally infected with E. multilocularis metacestodes; set-up: species or system Echinococcus multilocularis; settings: for Wet weight of the metacestodes: infected BALB/c mice, untreated 6.49 ± 1.18 g
Description: In vitro-grown metacestode vesicles were pressed through a 500 µm mesh and washed three times with sterile PBS. The parasite tissue was then taken up in an equal volume of sterile PBS. Each mouse was intraperitoneally injected with 200 μl suspension. Seven mice were injected with 200 μl PBS as the control group. Twenty-eight infected mice were randomly distributed into four groups (7 mice/group): the untreated group was not administered any drug; the ABZ group was treated with ABZ orally (100 mg/kg/day); and the Thia15 group and Thia30 group received thiacloprid orally (15 mg/kg/day and 30 mg/kg/day). Treatments of mice started 2 weeks post-infection, and treatments were administered daily for 6 weeks. After 6 weeks of treatment, whole blood via the orbital sinus was collected from mice and the animals were euthanized by CO2. Blood samples were incubated at 37 °C for 1 h and centrifuged at 3500 rpm for 10 min at 4 °C. The serum was harvested and stored at –20 °C for IL-2, IL-4, IL-10 and IgE detection. All metacestode tissues were collected, and the total wet weight of metacestodes per mice was determined. Furthermore, the content of cytokines in microcyst fluid was detected by enzyme-linked immunosorbent assay (ELISA). Several metacestode tissue specimens were processed for transmission electron microscopy (TEM) and histopathological experiments.
Tissues from experimental animals were washed in PBS and fixed in 4% paraformaldehyde at room temperature for […]. On the next day, they were dehydrated, embedded, and sliced into 5-μm sections. After dewaxing and dehydrating, sections were stained with hematoxylin for 2–5 min, and re-stained with eosin for 15 s. They were sealed with neutral gum and observed under a BX51 microscope (Olympus, Tokyo, Japan).
A Periodic Acid Schiff Stain Kit (Solarbio, Beijing, China) was used to show the PAS-positive laminated layer characteristic of E. multilocularis metacestodes. The section (5 μm) was dewaxed in xylene and rehydrated in 100%, 95%, 80%, and 75% alcohol baths. Staining was then carried out according to the kit instructions.

[4] = tested on: E. multilocularis metacestodes; assay: Morphology of in vitro treated metacestode vesicles (light microscope, SEM, TEM); type: cell-based, Echinococcus multilocularis; settings: 5 μM, 5 days
Description: The variations in the microstructure of the protoscoleces or metacestodes were observed under an electron microscope. In vitro-cultured E. multilocularis protoscoleces and metacestodes were treated with thiacloprid at 0 and 5 μM for 5 days at 37 °C and 5% CO2. They were washed twice in PBS and then fixed for 3 h with 2.5% glutaraldehyde (pH = 7.2); next, they underwent 2 h post-fixation in 2% OsO4 (SPI-CHEM, West Chester, PA, USA). Subsequently, the samples were washed in double-distilled water and treated with 1% uranyl acetate for 25 min. After the samples were washed again in double-distilled water, dehydration was conducted in ethanol at continuous gradients (30–50–70–80–90–95–100%) over a period of 10 min. For SEM analysis, the dehydrated samples were dipped into hexamethyldisiloxane and then air-dried in a fume hood. The sample was observed under a Hitachi SU8100 scanning electron microscope (Tokyo, Japan) after gold spraying. For TEM analysis, the dehydrated samples passed through a dehydrating agent, and an epoxy resin (SPI-CHEM) permeated and polymerized at 60 °C overnight. A 50-nm ultra-thin section was prepared and then loaded on a 300-mesh copper grid. It was stained with uranyl acetate and lead citrate (SPI-CHEM). The sample was observed under a Hitachi HT7700 transmission electron microscope. […]

SMILES: N#C/N=C1\SCCN1Cc1ccc(Cl)nc1 [thiacloprid]
- IC50 ([1]; confluent cells, read-out: IC50 on confluent HFF): 68.7 ± 9.71 µM
- IC50 ([1]; pre-confluent cells, read-out: IC50 on pre-confluent HFF): 64.8 ± 5.79 µM
- viability at 2.5 µM ([2]; Echinococcus multilocularis, 120 h, 2.5 μM, read-out: Cell viability rate of germinal cells): 58.3 ± 6.09%
- viability at 5 µM ([2]; Echinococcus multilocularis, 120 h, 5 μM, read-out: Cell viability rate of germinal cells): 38.3 ± 4.47%
- IC50 ([2]; Echinococcus multilocularis, 120 h, CellTiter-Glo, read-out: IC50 against germinal cells): 2.89 ± 0.34 µM
- Inhibition rate of germinal cell viability ([2]; more than 10 μM): more than 80%
- Acetylcholinesterase activity in protoscoleces, metacestode vesicles and germinal cells (acetylcholinesterase): suppressed
- PAS staining of laminated layer of metacestodes from treated mice ([3]; 6 weeks oral treatment): only a few laminated layers were observed
- HE staining of metacestodes from treated mice ([3]; 6 weeks oral treatment, thiacloprid 15 or 30 mg/kg/day, ABZ 100 mg/kg/day): Considerable vacuoles
- Wet weight of the metacestodes ([3]; thiacloprid 15 mg/kg/day orally, 6 weeks (Thia15 group)): 1.63 ± 0.62 g
- Wet weight of the metacestodes ([3]; thiacloprid 30 mg/kg/day orally, 6 weeks (Thia30 group)): 1.63 ± 0.61 g
- Morphological alterations of metacestode vesicles under a light microscope [4]: contraction and collapse
- TEM of metacestode vesicles [4]: obvious ultrastructural damage
